In patent publication US7875300B2, “Methods for reducing circulating glucose levels” (Rutgers, The State University of New Jersey, priority 2006, dated 2011):
Where “and” joins values, the source holds several entries; their conditions need not be identical. Identical values can stand only once.

How the values were obtained:
[1] = test system: high fat diet-induced diabetic model (male C57BL/6 mice); assay: Oral glucose tolerance test in high fat diet-induced diabetic model; assay type: in vivo; conditions: OGTT after 1 wk
Protocol: The Aframomum melegueta-derived hypoglycemic extract product of Example 1 was tested in vivo for hypoglycemic activity using a high fat diet-induced diabetic model.
(§1) Five week old male C57BL/6 mice (Jackson Laboratories, Bar Harbor, Me.) were placed on either low fat or high fat rodent diets (D12450B, 10% kcal, low fat or D12492, 60% kcal, high fat, Research Diets, New Brunswick, N.J.).
The mice were housed individually under controlled temperature (70° F.) and 12 hr light-dark cycles. Food (standard mouse chow, Purina) and water were available on an ad libitum basis for 7 days. The mice were then randomly divided into control Groups 1 and 6 (n=8-10), treatment Groups 2 and 3 (n=6), and two positive control Groups 4 and 5 (n=6) for the study. The control mice continued to receive either a high fat diet or a low fat diet, and the treatment groups were fed the high fat diet for a 14 week period. Two groups of mice were gavaged with PMI006 at a dose of 500 mg/kg daily. As a positive control, Metformin was administered at a dose of 300 mg/kg in two groups of positive control mice.
An oral glucose tolerance test was performed after seven days of treatment. On the test day, animals were fasted for seven hours and glucose (2.0 g/kg) was then orally administered to them. […]
Mice were deprived of food during testing and the blood glucose levels of whole blood (obtained from a tail nick procedure) were determined at certain times. The Aframomum melegueta-derived hypoglycemic extract product of Example 1 was orally administered at a dosage of 500 mg/kg to the two treatment Groups 2 and 3 either 1.5 or 3.0 hours before the glucose challenge. Metformin was orally administered at a dosage of 300 mg/kg to the animals in the positive control Groups 4 and 5 either 1.5 or 3.0 hours before the glucose challenge.

[2] = test system: male C57BL/6 mice on high fat diet; assay: Fasting blood glucose levels after a single gavage in mice on a high fat diet; assay type: in vivo; conditions: 300 mg, Group 5, gavage
Protocol: The Aframomum melegueta-derived hypoglycemic extract product of Example 1 was tested in vivo for hypoglycemic activity.
as §1
The mice were housed four to a cage under controlled temperature ([…]) and 12 hr light-dark cycles. Food (standard mouse chow, Purina) and water were available on an ad libitum basis for 7 days. The mice were then randomly divided into six groups (n=6) for the study. Five groups of mice were fed the high fat diet for 12 weeks (Groups 1-5), and the sixth group (Group 6) was fed the low fat diet for 12 weeks. Weekly food intake per cage and individual body weights were determined throughout the study.
After 12 weeks, all mice (Groups 1-6) were fasted for 4 hrs. After fasting, Group 1 mice provided a control and were gavaged with saline containing 5% DMSO; mice of Groups 2-4 were gavaged with different concentrations of the hypoglycemic extract product of Example 1 in 5% DMSO; and, Group 5 mice were gavaged with 300 mg/kg of Metformin in 5% DMSO as a positive control. Group 6 mice, which were fed a low fat diet, were gavaged with saline containing 5% DMSO and thus were also used as a control. Blood glucose levels were measured with a One Touch® Ultra® handheld glucometer (Lifescan, Milpitas, Calif.) using One Touch® Ultra® test strips. Mice were deprived of food during testing and the blood glucose levels of whole blood (obtained from a tail nick procedure) were determined at certain times (0, 3, and 5 hours after fasting commenced).
[…] with compositions comprising […]. The blood glucose levels were tested immediately after treatment (0 hours) and then 3 and 5 hours after treatment.

CN(C)C(=N)N=C(N)N [Metformin]
Plasma glucose ([1]; 300 mg/kg oral 1.5 hr before glucose challenge, Group 4, 0 min): 160 ± 4.9 mg/dL | Plasma glucose ([1]; 300 mg/kg oral 1.5 hr before glucose challenge, Group 4, 30 min): 235 ± 12.2 mg/dL | Plasma glucose ([1]; 300 mg/kg oral 1.5 hr before glucose challenge, Group 4, 60 min): 190 ± 11.1 mg/dL | Plasma glucose ([1]; 300 mg/kg oral 1.5 hr before glucose challenge, Group 4, 90 min): 164 ± 6.0 mg/dL | Plasma glucose ([1]; 300 mg/kg oral 3 hr before glucose challenge, Group 5, 0 min): 173 ± 13.2 mg/dL | Plasma glucose ([1]; 300 mg/kg oral 3 hr before glucose challenge, Group 5, 30 min): 207 ± 26.7 mg/dL | Plasma glucose ([1]; 300 mg/kg oral 3 hr before glucose challenge, Group 5, 60 min): 171 ± 14.8 mg/dL | Plasma glucose ([1]; 300 mg/kg oral 3 hr before glucose challenge, Group 5, 90 min): 158 ± 6.7 mg/dL | Avg. glucose ([2]; Time - 0 hours): 218.5 mg/dL | glucose (mg/dl), individual animals ([2]; Time - 0 hours): 252 mg/dL and 188 mg/dL and 194 mg/dL and 184 mg/dL and 274 mg/dL and 219 mg/dL | Avg. glucose ([2]; Time - 3 hours): 149.7 mg/dL | glucose (mg/dl), individual animals ([2]; Time - 3 hours): 66 mg/dL and 148 mg/dL and 161 mg/dL and 147 mg/dL and 157 mg/dL and 219 mg/dL | Average value ([2]; Time - 5 hours): 128.2 mg/dL | glucose (mg/dl), individual animals ([2]; Time - 5 hours): 145 mg/dL and 96 mg/dL and 119 mg/dL and 124 mg/dL and 162 mg/dL and 123 mg/dL
